Experimental data reported in patent publication US8629149B2, “Oxopiperazine derivatives for the treatment of pain and epilepsy” (Zalicus Pharmaceuticals Ltd., priority 2009, dated 2014).

Tests used:
SNL L5/L6 rats = experiment: L5/L6 spinal nerve ligation (SNL) Chung pain model, tactile allodynia (von Frey); format: in vivo, rat; conditions: for Rat SNL tactile allodynia, anti-allodynia (statement): compared to baseline and post-SNL
Text: The Spinal Nerve Ligation is an animal model representing peripheral nerve injury generating a neuropathic pain syndrome. In this model experimental animals develop the clinical symptoms of tactile allodynia and hyperalgesia. L5/L6 Spinal nerve ligation (SNL) injury was induced using the procedure of Kim and Chung (Kim et al., Pain 50:355-363 (1992)) in male Sprague-Dawley rats (Harlan; Indianapolis, Ind.) weighing 200 to 250 grams.
Anaesthesia was induced with 2% isofluorane in O2 at 2 L/min and maintained with 0.5% isofluorane in O2. Rats were then shaved and aseptically prepared for surgeries. A 2 cm paraspinal incision was made at the level of L4-S2. L4/L5 was exposed by removing the transverse process above the nerves with a small rongeur. The L5 spinal nerve is the larger of the two visible nerves below the transverse process and lies closest to the spine. The L6 spinal nerve is located beneath the corner of the slope bone. A home-made glass Chung rod was used to hook L5 or L6 and a pre-made slip knot of 4.0 silk suture was placed on the tip of the rod just above the nerve and pulled underneath to allow for the tight ligation. The L5 and L6 spinal nerves were tightly ligated distal to the dorsal root ganglion. The incision was closed, and the animals were allowed to recover for 5 days.
Sham control rats underwent the same operation and handling as the experimental animals, but without SNL.
Prior to initiating drug delivery, baseline behavioural testing data is obtained. At selected times after infusion of the Test or Control Article behavioural data can then be collected again.
The assessment of tactile allodynia consisted of measuring the withdrawal threshold of the paw ipsilateral to the site of nerve injury in response to probing with a series of calibrated von Frey filaments (innocuous stimuli). Animals were acclimated to the suspended wire-mesh cages for 30 min before testing. Each von Frey filament was applied perpendicularly to the plantar surface of the ligated paw of rats for 5 sec. A positive response was indicated by a sharp withdrawal of the paw. For rats, the first testing filament is 4.31. Measurements were taken before and after administration of test articles. […] The protocol was repeated until three changes in behaviour were determined (“up and down” method) (Chaplan et al., J. Neurosci. Methods 53:55-63 (1994)). The 50% paw withdrawal threshold was determined as (10^[Xf+kδ])/10,000, where Xf=the value of the last von Frey filament employed, k=Dixon value for the positive/negative pattern, and δ=the logarithmic difference between stimuli. The cut-off values for rats were no less than 0.2 g and no higher than 15 g (5.18 filament); for mice no less than 0.03 g and no higher than 2.34 g (4.56 filament). A significant drop of the paw withdrawal threshold compared to the pre-treatment baseline is considered tactile allodynia.
Rat SNL tactile allodynia were tested for Compounds 1-4 and 9-12 at 60 minutes compared to baseline and post-SNL. […] FIG. 1 is a plot of the antiallodynic effects of compound 4 (i.p.) tested in SNL L5/L6 rats using von Frey at three different doses, namely 3, 10 and 30 mpk, compared to vehicle alone. […] Rat SNL tactile allodynia were tested at 1, 2 and 4 hours after drug treatment (Table 6).

[1] = Rat Early Pharmacokinetic (EPK) study; format: in vivo; conditions: 30 mg/kg PO, 0.5% CMC; for Tmax: male, Sprague-Dawley, blood
Procedure: Male Sprague-Dawley rats were dosed via oral (PO) gavage in the detailed formulation. Blood samples were collected from the animals at 6 timepoints out to 4 hours post-dose. Pharmacokinetic analysis was performed on the LC-MS/MS measured concentrations for each timepoint of each compound.

[2] = biological target: T1, Nav1.7 channels expressed in HEK cells (Homo sapiens, UniProt Q15858); experiment: Nav1.7 voltage-clamp electrophysiological assay (enhancement of slow inactivation); format: cell-based; conditions: n 5 cells
T1 construct: expressed in transfected cells; host or cells: HEK cells
T1 sequence (Q15858 whole entry): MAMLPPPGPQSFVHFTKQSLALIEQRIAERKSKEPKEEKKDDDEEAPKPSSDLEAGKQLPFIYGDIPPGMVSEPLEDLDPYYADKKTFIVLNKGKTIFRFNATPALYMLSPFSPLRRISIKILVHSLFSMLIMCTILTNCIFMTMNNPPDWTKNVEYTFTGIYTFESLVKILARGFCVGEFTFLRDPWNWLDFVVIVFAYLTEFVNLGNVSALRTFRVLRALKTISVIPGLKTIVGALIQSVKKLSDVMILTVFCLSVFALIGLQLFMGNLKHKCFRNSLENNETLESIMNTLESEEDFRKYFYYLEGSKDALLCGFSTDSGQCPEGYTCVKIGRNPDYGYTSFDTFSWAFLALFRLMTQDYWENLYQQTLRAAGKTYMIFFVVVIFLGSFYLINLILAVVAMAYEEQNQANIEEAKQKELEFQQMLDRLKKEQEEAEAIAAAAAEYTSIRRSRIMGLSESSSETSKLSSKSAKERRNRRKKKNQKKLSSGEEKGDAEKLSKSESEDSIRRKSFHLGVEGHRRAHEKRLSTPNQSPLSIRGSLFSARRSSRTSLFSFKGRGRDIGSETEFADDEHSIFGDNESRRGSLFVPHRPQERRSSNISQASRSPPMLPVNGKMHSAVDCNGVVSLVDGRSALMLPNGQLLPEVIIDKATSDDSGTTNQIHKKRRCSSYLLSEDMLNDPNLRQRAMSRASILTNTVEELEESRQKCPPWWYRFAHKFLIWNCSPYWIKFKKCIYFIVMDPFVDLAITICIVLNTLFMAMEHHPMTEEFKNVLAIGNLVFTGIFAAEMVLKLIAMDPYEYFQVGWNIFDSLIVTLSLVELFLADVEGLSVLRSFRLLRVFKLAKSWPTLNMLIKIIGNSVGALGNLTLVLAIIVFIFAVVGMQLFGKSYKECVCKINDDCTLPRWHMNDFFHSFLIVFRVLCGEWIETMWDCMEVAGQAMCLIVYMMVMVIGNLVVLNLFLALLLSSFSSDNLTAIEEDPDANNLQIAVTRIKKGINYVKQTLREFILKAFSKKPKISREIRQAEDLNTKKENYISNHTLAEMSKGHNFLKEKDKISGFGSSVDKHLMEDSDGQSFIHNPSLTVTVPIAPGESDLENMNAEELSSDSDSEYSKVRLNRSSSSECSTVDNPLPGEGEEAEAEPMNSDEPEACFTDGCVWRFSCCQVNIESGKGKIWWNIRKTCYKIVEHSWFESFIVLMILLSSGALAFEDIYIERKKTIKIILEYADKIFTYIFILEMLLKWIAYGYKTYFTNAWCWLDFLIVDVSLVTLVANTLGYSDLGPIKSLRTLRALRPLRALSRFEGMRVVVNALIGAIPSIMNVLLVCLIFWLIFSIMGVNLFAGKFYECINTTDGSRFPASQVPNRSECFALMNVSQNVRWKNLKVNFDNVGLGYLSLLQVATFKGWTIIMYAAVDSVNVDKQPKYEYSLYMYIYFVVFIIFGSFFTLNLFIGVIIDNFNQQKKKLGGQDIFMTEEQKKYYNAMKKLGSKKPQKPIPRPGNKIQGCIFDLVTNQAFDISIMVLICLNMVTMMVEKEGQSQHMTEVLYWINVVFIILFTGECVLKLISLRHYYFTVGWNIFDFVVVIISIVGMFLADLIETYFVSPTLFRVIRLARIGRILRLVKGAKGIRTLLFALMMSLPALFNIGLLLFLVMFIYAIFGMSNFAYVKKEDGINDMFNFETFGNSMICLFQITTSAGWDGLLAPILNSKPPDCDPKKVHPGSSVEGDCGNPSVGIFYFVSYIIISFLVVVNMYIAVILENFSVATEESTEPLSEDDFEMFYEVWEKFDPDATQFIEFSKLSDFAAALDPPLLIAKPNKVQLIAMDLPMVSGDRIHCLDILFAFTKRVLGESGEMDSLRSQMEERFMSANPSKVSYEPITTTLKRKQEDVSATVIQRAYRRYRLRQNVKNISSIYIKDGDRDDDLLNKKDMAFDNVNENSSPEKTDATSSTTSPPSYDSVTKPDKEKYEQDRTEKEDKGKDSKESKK
Procedure: To examine the effects of compounds on enhancement of slow inactivation of Nav1.7 and Nav1.8 channels expressed in HEK cells the culture media was replaced with an extracellular solution containing (in mM): 137 NaCl, 4 KCl, 1.8 CaCl2, 1 MgCl2, 10 HEPES, 10 glucose, pH adjusted to 7.4 with NaOH. The intracellular solution contained (in mM): 130 KCl, 1 MgCl2, 5 EGTA, 10 HEPES, 5 K2ATP, adjusted to pH 7.3 with KOH. Whole-cell recordings, preparation and application of test compounds were performed in a similar manner to the Cav3.2 electrophysiological assays. Voltage protocols were applied to quantify the effects of test compounds to enhance slow inactivation for Nav1.7 and Nav1.8.

Dose Normalized AUC [1] | Dose Normalized Cmax [1] | Tmax [1] | Fraction current remaining ([2]; concentration tested 10 μM) | Fraction current remaining ([2]; concentration tested 100 μM) | Structure (SMILES) | Rat SNL Tactile Allodynia (% Antiallodynia) (SNL L5/L6 rats; 1 hour after drug treatment) | Rat SNL Tactile Allodynia (% Antiallodynia) (SNL L5/L6 rats; 2 hours after drug treatment) | Rat SNL Tactile Allodynia (% Antiallodynia) (SNL L5/L6 rats; 4 hours after drug treatment) | Rat SNL tactile allodynia, anti-allodynia (statement) (SNL L5/L6 rats)
993 nM·h | 333 nM | 102 min |  |  | O=C1CN(C(=O)NC(c2ccccc2)c2ccccc2)CCN1 [Compound 1, N-benzhydryl-3-oxopiperazine-1-carboxamide] | 10% | 19% | 26% | significant anti-allodynia
1087 nM·h | 730 nM | 30 min |  |  | O=C1CN(C(=O)C(c2ccccc2)c2ccccc2)CCN1 [Compound 7, 4-(2,2-diphenylacetyl)piperazin-2-one] | 10% | 9% | 14% | 
185 nM·h | 132 nM | 40.2 min |  |  | O=C1CN(C(=O)C=C(c2ccccc2)c2ccccc2)CCN1 [Compound 8, 4-(3,3-diphenylacryloyl)piperazin-2-one] | 17% | 24% | 17% | 
 |  |  | 0.93 | 0.86 | O=C1CN(C(=O)CC(c2ccc(F)cc2)c2ccc(F)cc2)CCN1 [Compound 9, 4-(3,3-bis(4-fluorophenyl)propanoyl)piperazin-2-one] | 7% | 10% | 7% | significant anti-allodynia
 |  |  |  |  | O=C1CN(C(=O)C(c2ccc(Cl)cc2)c2ccc(Cl)cc2)CCN1 [Compound 13, 4-(2,2-bis(4-chlorophenyl)acetyl)piperazin-2-one] |  |  |  | significant anti-allodynia
 |  |  |  |  | CC1(C)C(=O)NCCN1C(=O)CC(c1ccc(F)cc1)c1ccc(F)cc1 [Compound 15, 4-(3,3-bis(4-fluorophenyl)propanoyl)-3,3-dimethylpiperazin-2-one] | 11% | 8% | 15% | 

Structure (SMILES) | Dose Normalized AUC [1] | Dose Normalized Cmax [1] | Tmax [1] | Fraction current remaining ([2]; concentration tested 10 μM) | Fraction current remaining ([2]; concentration tested 100 μM) | Rat SNL Tactile Allodynia (% Antiallodynia) (SNL L5/L6 rats; 1 hour after drug treatment) | Rat SNL Tactile Allodynia (% Antiallodynia) (SNL L5/L6 rats; 2 hours after drug treatment) | Rat SNL Tactile Allodynia (% Antiallodynia) (SNL L5/L6 rats; 4 hours after drug treatment) | Rat SNL tactile allodynia, anti-allodynia (statement) (SNL L5/L6 rats)
O=C1CN(C(=O)C[S+]([O-])C(c2ccccc2)c2ccccc2)CCN1 (centres unmarked) [Compound 2, 4-(2-(benzhydrylsulfinyl)acetyl)piperazin-2-one] | 283 nM·h | 182 nM | 30 min |  |  |  |  |  | 
